Results from patent US20090247495A1, “CU[…] AND USES THEREOF” (priority 2007, published 2009).
“Also recorded” adds a separate entry of the source.

Tests used:
[1] = system: Raf/Mek/Erk pathway; assay: Western blot of phosphorylated c-Raf, Mek1/2, Erk1/2 and Elk-1 in K562 cells; type: cell-based, human; details: 50 μM
Description: K562 leukemia cells were serum starved for 18 hours prior to cucurbitacin B treatment. The cells were incubated at a 75-mm culture flask filled with 10 ml growth medium (RPMI with 10% FBS and 1% PS) at the cell density of 1×10^5 cells/ml in the presence or absence of cucurbitacin B for various time intervals. The drug treatment were terminated by centrifugation at 1500 rpm for 5 minutes and the cells were rinsed twice with phosphate-buffered saline and lysed at 4° C. in a lysis buffer containing 50 mM Tris-HCl, pH7.5, […], 5 mM EDTA, 40 mM NaP2O7, 1% Triton X-100, 1 mM dithiothreitol, 200 μM Na3VO4, 100 μM phenylmethysufonyl fluoride, 2 μg/ml leupeptin, 4 μg/ml aprotinin and 0.7 μg/ml pepstatin. The insoluble protein lysate were removed by centrifugation for 10 minutes at 13000 rpm. Fifteen micrograms of protein lysate was resolved using SDS-polyacryamide gel electrophoresis (PAGE) (usually 8%-12% polyacrylamide gel) and then subjected to western blot anaylsis. Western blots were performed with antibodies specific for phosphorylated and total Stat3, c-Raf, Mek, and Erk. […]
In order to further investigate if cucurbitacin B block the Stat3 activation is truly through Erk pathway in K562 cells, the ability of cucurbitacin B to inhibit the Ras/Raf/Mek/Erk pathway was determined by measuring Ras-GTP, phosphorylation of c-Raf, Mek1/2, Erk1/2 and Elk-1 in K562 cells. […]

[2] = system: PARP; assay: Western blot of PARP cleavage in HL60 cells; type: cell-based, human
Description: Control cells, as well as cells treated with cucurbitacin B or cucurbitacin D, were harvested and collected by centrifugation. Whole cell extracts were then prepared by lysing the cells using 4% sodium dodecyl sulfate (SDS) gel sample buffer. Cell extracts were boiled for 10 min and chilled on ice, subjected to 12% SDS-polyacrylamide gel electrophoresis, and transferred to a PVDF membrane. Each membrane was cut into to two pieces with one piece incubated at 4° C. overnight with antibodies against cell cycle signaling proteins, such as ERK, phosphorlated-ERK, p38, phosphorlated-p38, Cyclin E, Retinoblastoma, phosphalated-Retinoblastoma and c-myc, and apoptotic protein (PARP). β-actin was used as a control for protein loading. All antibodies were obtained from Cell signaling Technologies (USA). Then membranes were incubated at 37° C. for 1 h with secondary antibody conjugated with peroxidase, and the signal was detected using chemiluminescence detection reagent. The relative protein level was calculated as the ratio of the optical density of the protein of interest to that of β-actin.

[3] = system: 59 human cancer cell lines; assay: SRB growth inhibition, 59-NCI Cancer Cell Line Panel; type: cell-based; details: 48 hours, range over 59 cell lines
Text: Human cancer cell lines from the 59-NCI Cancer Cell Line Panel including leukemia, melanoma and cancers of breast, brain, colon, lung, ovary, prostate and kidney, were purchased from the National Institute of Cancer (USA). The growth inhibition (GI50) of these cell lines treated with cucurbitacin B and cucurbitacin D in various concentrations was investigated.
59 human cancer cell lines were maintained in RPMI 1640 (Invitrogen Life Technologies, CA, USA) supplemented with 5% Fetal Bovine Serum, 2 mM L-glutamine and 1% Penicillin/Streptomycin (Invitrogen Life Technologies) at 37° C. with 5% CO2. All chemicals were purchased from Sigma (St. Louis, Mo., USA) unless specified otherwise.
Sulforhodamine B (SRB) assay was applied to determine the cytostatic effect of cucurbitacin B and cucurbitacin D. SRB is a dye that binds to cellular proteins and will be dissolved in base. The biomass of total protein can be measured at 520 nm using a plate reader.
Cells were inoculated into 96-well microtiter plates including “Time zero” (Tz) plates in 100 μl at cell concentrations from 5000 to 40,000 cells per well according to NCI guideline. The cells were incubated at 37° C. with 5% CO2 for 24 hours. […] Bound SRB was solubilized with 100-200 ul per well of 10 mM trizma base and absorbance was measured at a wavelength of 520 nm. The percentage of growth inhibition was calculated as follows: […]

[4] = system: Stat3; assay: Western blot of Stat3 activation in HepG2, HT29 and MCF-7 cells; type: cell-based, human
[5] = system: Jak, Stat3 and c-raf; assay: Western blot of phosphorylated Jak, Stat3 and c-raf in Panc-1 cells; type: cell-based, human; details: IC50 dosage (0.8 uM)
Description: The drug treatment was terminated and the cells were rinsed twice with phosphate-buffered saline and lysed at 4° C. in a lysis buffer containing 50 mM Tris-HCl, pH7.5, 100 mM NaCl, 5 mM EDTA, 40 mM NaP2O7, 1% Triton X-100, 1 mM dithiothreitol, 200 μM Na3VO4, 100 uM phenylmethysufonyl fluoride, 2 μg/ml leupeptin, 4 μg/ml aprotinin and 0.7 μg/ml pepstatin. The insoluble protein lysate were removed by centrifugation for 10 minutes at 12,000 rpm. Fifty micrograms of protein lysate was resolved using 10% SDS-polyacryamide gel electrophoresis (PAGE) and then subjected to western blot anaylsis. Western blots were performed with antibodies specific for phosphor- and Jak, Stat3 and c-raf proteins. […] The protein bands were then visualized with the Enhanced Chemiluminescence Plus (ECL Plus) detection system (Amersham).
The proteins activation was detected by western blot.
Cell lysate (50 μg) of each sample was separated in 10% SDS-PAGE followed by immuno-blotting with anti-jak1 anti-jak2, anti-jak3, anti-Stat3 and c-raf antibodies to detect the phosphorylated form of jak1, jak2, jak3, Stat3 and c-raf.

[6] = system: K562 cells; assay: Flow cytometry for apoptosis analysis (Annexin V / PI), K562; type: cell-based, human; details: 80 nM, 48 hours
Description: 10^5/ml K562 cells were treated with cucurbitacin B in the presence of complete medium containing 10% FBS for 48 hours. The changes in cell morphology were visualized using Leica DMIL (Leica Microsystem). Cells were harvested and rinsed twice with ice-cold PBS (pH7.4) and a total 2.5×10^5 K562 cells were stained with 10 μl Annexin V and 10 μl propidium iodide in 100 μl 1×binding buffer for 15 minutes in dark and then subjected to apoptosis analysis with FACSCalibar Flow cytometer system (FACS Calibur BD Flow Cytometer). • 6.1.5 Flow Cytometry for Cell Cycle Analysis
Appropriate number of cell density were seeded into T-25 culture flask and treated with different doses of cucurbitacin B for 2 days. The apoptotic effects of cucurbitacin B on the cells were detected using Flow Cytometry analysis after stained with Anx.V and PI for 15 minutes. […] Cucuribitacin B induced apoptosis in a dose dependent manner, among them, 80 nM induced the highest apoptotic effect in K562 cells, with over 50% cells in apoptotic population and 10% cells in the necrotic population (late apoptotic and necrotic phase). The effect of cucurbitacin B on apoptosis and cell cycle profile in K562 cells were analyzed using flow cytometry, as depicted in FIG. 3.

## CC(=O)OC(C)(C)/C=C/C(=O)[C@](C)(O)C1[C@H](O)C[C@@]2(C)C3CC=C4C(C[C@H](O)C(=O)C4(C)C)[C@]3(C)C(=O)C[C@]12C (stereo partly shown) [cucurbitacin B]
[1]; 5 minutes treatment
  activation (phosphorylation) of c-Raf, Mek1/2, Erk1/2 and Elk-1: significantly inhibited; also recorded: significant disruption
[1]; 4 hours
  inhibition of the Raf/Mek/Erk pathway: Complete inhibition
[2]
  apoptosis marker PARP: cleavage of PARP
[3]
  GI50: 0.0058 to 0.164 µM
[4]; HepG2 cells and HT29 cells, 25 ug/ml, 30 minutes
  Stat3 activation: inhibited significantly
[4]; MCF-7 cells
  Stat3 activation: no significant change
[5]; 4 hours
  Jak and c-raf activation: inhibited significantly
[5]; 24 hours
  Stat3 activation: inhibited significantly
[6]
  cells in apoptotic population: over 50%
  cells in the necrotic population (late apoptotic and necrotic phase): 10%
